# Where a SMILES comes first, the peptide text is derived from it.
# Tests used:
# [1] = test system: hTAS1R2 and tas1r3-hN-rTM; experiment: Calcium mobilization (FLIPR), chimera with human N-terminus and rat transmembrane region; assay type: cell-based; conditions: asp 15 mM; cyc 30 mM; neo 0.1 mM; sac 10 mM; suc 100 mM; stev 1 mM
# Text: The receptor chimeras of Tas1r3 were constructed using recombinant PCR. In the first reactions the N-terminal and the C-terminal part containing the seven transmembrane domains of hTAS1R3 and rTas1r3 were amplified from plasmid DNA using Ultra Pfu Polymerase (Stratagene). For the hTAS1R3 and rTas1r3 N-termini the forward vector-anchored primer (CMV: […]) and a reverse gene specific primer ([…]) were used. The hTAS1R3 and rTas1r3 C-terminal part were amplified with forward gene specific primer ([…]) and a reverse vector-anchored primer ([…]). PCR conditions were: 5 min, 94°C, 24 cycles 1 min 94°C, 0.5 min 64°C, 2 min 72°C; 5 min 72°C. The amplicons were purified using the Highpure PCR Product Purification Kit (Roche) and used as template for the second PCR. To create the chimeric receptor tas1r3-hN-rTM, equimolar amounts (~50 ng) of the hTAS1R3 N-terminus and rTas1r3 transmembrane domains were combined without additional oligonucleotides. PCR conditions were: 5 min 94°C; 15 cycles of 2 min 64°C, 2 min 72°C and 0.5 min 94°C; followed by 5 min 64°C and 10 min 72°C. […] These chimeras were cloned into pcDNA5/FRT.
# The cDNAs were transiently transfected into HEK293T cells stably expressing the chimeric G-protein subunit Gα16gust44 [20] using Lipofectamine 2000 (Invitrogen) according to the manufacturer's protocol. 3–4 hours after transfection, DMEM was replaced by low-glucose DMEM supplemented with GlutaMAX and 10% dialyzed FBS (Invitrogen). 22–44 hours later, cells were loaded for 1 hour with the calcium sensitive dye Fluo4-AM (2 μg/ml in DMEM, Molecular Probes). Cells were washed 3x in solution C1 (130 mM NaCl, 5 mM KCl, 10 mM Hepes, 2 mM CaCl2, and 5 mM Glucose, pH 7,4). Calcium mobilization was monitored by an automated fluorometric imaging plate reader (FLIPR, Molecular Devices). Ligands (Sigma-Aldrich, Merck) were dissolved in C1 solution. All data were collected from at least two independent experiments carried out in triplicate. The obtained calcium signals were corrected for the response of mock transfected cells and normalized to the fluorescence of cells prior to the stimulus using ΔF/F=(F-F0)/F0. […]
# All sweeteners were used at concentrations which were close to the maximal obtainable signal. (c) Alignment of amino acid sequences of the human, rat, and mouse Tas1r3 transmembrane regions. Color code: white, identical; grey, conservative; dark-grey, similar; black, non-similar. TM, predicted transmembrane domain, indicated by a black bar. Dots indicate the location of the primer used to generate the chimeric rat-human Tas1r3 receptors. Asterisks denote amino acid positions that are identical in rat and mouse but variable between humans and rodents and are located in the extracellular loops or the upper part of the transmembran regions. Boxes indicate the several rTas1r3 mutants m1 – m7, including the amino acid substitutions. m6/1 – m6/3 signified the reconverted amino acid of mutant m6.
# [2] = test system: human TAS1R2-TAS1R3 heteromer; conditions: cited from earlier work
SMILES,activation of receptor (calcium response) [1],activation of heteromer [2]
COc1ccc(CCC(=O)c2c(O)cc(O[C@@H]3O[C@H](CO)[C@@H](O)[C@H](O)[C@H]3O[C@@H]3O[C@@H](C)[C@H](O)[C@@H](O)[C@H]3O)cc2O)cc1O [neohesperidine dihydrochalcone],not,
OC[C@H]1O[C@@](CO)(O[C@H]2O[C@H](CO)[C@@H](O)[C@H](O)[C@H]2O)[C@@H](O)[C@@H]1O [sucrose],responded,
C=C1C[C@@]23CC[C@H]4[C@@](C)(CCC[C@@]4(C)C(=O)O[C@@H]4O[C@H](CO)[C@@H](O)[C@H](O)[C@H]4O)[C@@H]2CC[C@]1(O[C@@H]1O[C@H](CO)[C@@H](O)[C@H](O)[C@H]1O[C@@H]1O[C@H](CO)[C@@H](O)[C@H](O)[C@H]1O)C3 [stevioside],responded,

# Continued, in another order:
activation of receptor (calcium response) [1],SMILES,activation of heteromer [2]
not,O=S(=O)(O)NC1CCCCC1 [cyclamate],only activate the human
responded,COC(=O)[C@H](Cc1ccccc1)NC(=O)[C@@H](N)CC(=O)O [aspartame] (HELM PEPTIDE1{D.F.[CO[*:1]]}$$$$V2.0),only activate the human

# Reference: article PMC1084349 (BMC Neuroscience, 2005)
